From US20070134261A1, “Effectors of innate immunity” (priority 2001, published 2007) come the findings set out here.

Structures are written as SMILES.

This assay concerns mouse macrophage RAW cell line. Kind of assay: Phosphorylation of MAP kinases (Western blot) in RAW cell line. The assay is classed as cell-based. On the procedure: The cells were seeded at 2.5×10^5−5×10^5 cells/ml and left overnight. They were washed once in media, serum starved in the morning (serum free media—4 hrs). The media was removed and replaced with PBS, then sat at 37° C. for 15 minutes and then brought to room temp for 15 minutes. Peptide was added (concentrations 0.1 μg/ml−50 μg/ml) or H2O and incubated 10 min. The PBS was very quickly removed and replaced with ice-cold radioimmunoprecipitation (RIPA) buffer with inhibitors (NaF, B-glycerophosphate, MOL, Vanadate, PMSF, Leupeptin Aprotinin). The plates were shaken on ice for 10-15 min or until the cells were lysed and the lysates collected. The procedure for THP-1 cells was slightly different; more cells (2×10^6) were used. They were serum starved overnight, and to stop the reaction 1 ml of ice-cold PBS was added then they sat on ice 5-10 min, were spun down then resuspended in RIPA. Protein concentrations were determined using a protein assay (Pierce, Rockford, Ill.). Cell lysates (20 μg of protein) were separated by SDS-PAGE and transferred to nitrocellulose filters. […] The freshly harvested cells were consistently >99% viable as assessed by their ability to exclude trypan blue. […] Protein content was analyzed and approximately 30 μg of each sample was loaded in a 12% SDS-PAGE gel. […] Phosphorylation was detected with phosphorylation-specific antibodies.
Background: In western blotting, separated proteins are transferred to a membrane and probed.

Turning to `CC[C@H](C)[C@H](N)C(=O)N[C@@H](CC(C)C)C(=O)N1CCC[C@H]1C(=O)N[C@@H](Cc1c[nH]c2ccccc12)C(=O)N[C@@H](CCCCN)C(=O)N[C@@H](Cc1c[nH]c2ccccc12)C(=O)N1CCC[C@H]1C(=O)N[C@@H](Cc1c[nH]c2ccccc12)C(=O)N[C@@H](Cc1c[nH]c2ccccc12)C(=O)N1CCC[C@H]1C(=O)N[C@@H](Cc1c[nH]c2ccccc12)C(=O)N[C@@H](CCCNC(=N)N)C(=O)N[C@@H](CCCNC(=N)N)C(N)=O` [SEQ ID NO: 2], the “phosphorylation of p38 and ERK1/2” value is listed as “dose dependent phosphorylation”.
